Laboratory results: patent publication US20120277246A1, “Use of N-Phenyl-2-pyrimidineamine Derivatives Against Mast Cell-based Diseases Like Allergic Disorders” (priority 2001, published 2012)
One block for each compound: values may come before it.

Assays:
[1] = target: T1, constitutively activated mutant canine KIT (BR cells, Leucine to Proline substitution at amino acid 575) (Canis lupus familiaris, UniProt O97799, L579P); assay: KIT autophosphorylation in BR cells (anti-P-Tyr Western immunoblot); type: cell-based
T1 construct: Lysates prepared from BR or C2 cells were probed with an anti-P-Tyr antibody; endogenous in cells; host or cells: BR canine mastocytoma cell line
From the text: (§1) Antibodies: A polyclonal rabbit anti-KIT antibody (c-kit Ab-1) was used at a dilution of 1:500 (c-kit Ab-1; Oncogene, Cambridge, Mass.). An anti-phosphotyrosine antibody (PY20) was used at a dilution of 1:1000 (PY20 Transduction Laboratories; Lexington, Ky.). Peroxidase conjugated goat anti-mouse antibody was used at a dilution of 1:5000 and goat anti-rabbit antibody at a dilution of 1:10,000 (Pierce; Rockford, Ill.).
(§2) Cell lines: BR and C2 canine mastocytoma cells lines were obtained from Dr. George Caughey (University of California at San Francisco, San Francisco, Calif.). Both cell lines were maintained in DMEM supplemented with 2% bovine calf, 1 mM L-glutamine, 12.5 mM HEPES (pH 7.5), 0.25 mg/ml Histidine, 1% Penicillin-Streptomycin and 1% fungizone. The BR and C2 cells were derived from canine mast cell tumors and were originally established in long-term culture after initial passaging in immunodeficient mice (DeVinney R et al., Am J Respir Cell Mol Biol 1990; 3(5):413-420; Lazarus S C et al., Am J Physiol 1986; 251(6 Pt 1):C935-C944). The BR cell line has a point mutation (T1752C) resulting in a Leucine to Proline substitution at amino acid 575 (juxtamembrane domain). The C2 cell line has an internal tandem duplication (ITD) of the KIT juxtamembrane region.
(§3) Protein lysates: BR and C2 cells were washed×2 in PBS and then quiesced in Optimem (Gibco-BRL) at 37° C. for approximately 18 hours.
(§4) The KIT mutations in these cell lines are both located in the juxtamembrane domain and are homologous to mutations seen in human Gastrointestinal Stromal Tumors (GISTS) (Lux et al., Am. J. Pathol., Vol. 156, No. 3, pp. 791-795 (2000); Rubin et al., Cancer Res., Vol. 61, No. 22, pp. 8118-8121 (2001)). Lysates prepared from BR or C2 cells were probed with an anti-P-Tyr antibody and KIT receptor activation was assessed by measuring autophosphorylation.

[2] = tested on: BR canine mastocytoma cells; assay: Proliferation of BR cells, XTT-based assay; type: cell-based; settings: for % (percent of maximal proliferation, cells only) / Averages (XTT-based assay reading): 72 hours; for Averages (XTT-based assay reading): triplicate
Method: as §2, with “region. The translation of this ITD results in reduplication of amino acid residues at the 3′ end of exon 11 (London et al., Exp. Hematol., Vol. 27, No. 4, pp. 689-697 (1999); Ma et al., J. Invest. Dermatol., Vol. 112, No. 2, pp. 165-170 (1999)).” for “region.”
(§5) Proliferation assays: Cells were added to 96-well plates at a density of 40,000 cells/well in normal culture media and varying concentrations of SALT I. Proliferation was measured at 48-72 hours using an XTT-based assay (Roche Molecular Biochemicals; Indianapolis, Ind.) (Heinrich et al., Blood, Vol. 96, No. 3, pp. 925-932 (2000))
(§6) Representative results from one of six independent experiments are shown.

[3] = tested on: C2 canine mastocytoma cells; assay: Proliferation of C2 cells, XTT-based assay; type: cell-based; settings: C2 cells (data not shown)
[4] = tested on: cutaneous mast cell tumors; assay: Prospective case series of pet dogs with measurable cutaneous mast cell tumors; type: in vivo; settings: 25 mg/kg PO QD x 60 days of SALT I, prospective example
Method: The study patients are pet dogs with measurable and histologically-confirmed mast cell tumors. Cases are limited to those with measurable lesions amenable to biopsy.
Eligibility criteria are: • Histologically-confirmed measurable cutaneous mast cell tumors • Cases will require serial biopsy with […] Keyes punch before and during therapy • Histological grade (II-intermediate or III-poorly differentiated) • Performance status 0 or I (Modified Karnofsky—Table 3) • Informed owner consent
Exclusion criteria are: • Concurrent cytotoxic chemotherapy • Prednisone and non-steroidal anti-inflammatory drugs may not be initiated within 30 days of the study; if prednisone or non-steroidal anti-inflammatory drugs have been administered for greater than 30 days they may be continued • Abnormal serum bile acid test (liver function)
Pretreatment evaluation of all cases include physical examination, complete blood count, buffy coat, serum biochemistry, urinalysis, serum bile acids (fasting and post-prandial), documentation of regional lymph node size, abdominal radiographs, and abdominal ultrasound. […]
The efficacy of COMPOUND I is assessed against measurable cutaneous mast cell tumors, using clinical endpoints. […]
Clinical endpoints include response rate of measurable tumors, objective response against measurable tumor, and time to progression of measurable tumor. All adverse side effects will be recorded.

[5] = tested on: constitutively activated mutant canine KIT (C2 cells, internal tandem duplication of the juxtamembrane region); assay: KIT autophosphorylation in C2 cells (anti-P-Tyr Western immunoblot); type: cell-based
From the text: as §1, §2, §3, §4

[6] = tested on: C2 canine mastocytoma cells; assay: Proliferation of C2 cells, XTT-based assay; type: cell-based; settings: for % (percent of maximal proliferation, cells only) / Averages (XTT-based assay reading): 72 hours; for Averages (XTT-based assay reading): triplicate
Method: as §2, with “region. The translation of this ITD results in reduplication of amino acid residues at the 3′ end of exon 11 (London et al., Exp. Hematol., Vol. 27, No. 4, pp. 689-697 (1999); Ma et al., J. Invest. Dermatol., Vol. 112, No. 2, pp. 165-170 (1999)).” for “region.”
as §5, §6

CD34+ cord blood cells = assay: Cell production by CD34+ cells under stimulation with SCF (suspension culture); type: cell-based, human; settings: STI571B at 10^-6 M
Method: (§7) More than 90% of the isolated cells were CD34-positive according to the flow cytometric analysis.
(§8) Serum-deprived liquid cultures are carried out in 24-well culture plates (#3047; Becton Dickinson). Twenty thousand CD34^+ cells are cultured in each well containing 2 mL of […]-medium supplemented with 1% BSA, 300 μg/mL fully iron-saturated human transferrin (approximately 98% pure, Sigma), 16 μg/mL soybean lecithin (Sigma), 9.6 μg/mL cholesterol (Nakalai Chemicals Ltd., Japan) and 20 ng/mL of SCF, 10 ng/mL of GM-CSF, 2 U/mL of EPO, 10 ng/mL of TPO, different concentrations of a COMPOUND OF THE INVENTION, alone or in combination. In order to examine the effects of a COMPOUND OF THE INVENTION on the SCF-dependent development of mast cells, 10-week cultured cells grown with 20 ng/mL of SCF from CD34^+ cord blood cells are used as target cells. Five to ten×10^4 10-week cultured cells are incubated for 2 weeks in 24-well culture plates containing 20 ng/mL of SCF with or without various concentrations of a COMPOUND OF THE INVENTION. The plates are incubated at 37° C. in a humidified atmosphere flushed with a mixture of 5% CO2, 5% O2 and 90% N2. When the culture continued until 4 weeks, half of the culture medium is replaced every 2 weeks with fresh medium containing the factor(s). The number of viable cells is determined by a trypan-blue exclusion test using a hemocytometer.

[7] = tested on: cultured human mast cells generated from CD34+ cord blood cells; assay: SCF-dependent growth of cultured human mast cells (suspension culture, trypan-blue viable cell count); type: cell-based
Method: as §7, §8

[8] = tested on: cultured mast cells grown under stimulation with SCF; assay: Detection of cellular apoptosis (PI flow cytometry, DNA gel electrophoresis)
[9] = membrane reprobed with anti-c-kit antibody

T1 sequence (O97799 28-979 L579P): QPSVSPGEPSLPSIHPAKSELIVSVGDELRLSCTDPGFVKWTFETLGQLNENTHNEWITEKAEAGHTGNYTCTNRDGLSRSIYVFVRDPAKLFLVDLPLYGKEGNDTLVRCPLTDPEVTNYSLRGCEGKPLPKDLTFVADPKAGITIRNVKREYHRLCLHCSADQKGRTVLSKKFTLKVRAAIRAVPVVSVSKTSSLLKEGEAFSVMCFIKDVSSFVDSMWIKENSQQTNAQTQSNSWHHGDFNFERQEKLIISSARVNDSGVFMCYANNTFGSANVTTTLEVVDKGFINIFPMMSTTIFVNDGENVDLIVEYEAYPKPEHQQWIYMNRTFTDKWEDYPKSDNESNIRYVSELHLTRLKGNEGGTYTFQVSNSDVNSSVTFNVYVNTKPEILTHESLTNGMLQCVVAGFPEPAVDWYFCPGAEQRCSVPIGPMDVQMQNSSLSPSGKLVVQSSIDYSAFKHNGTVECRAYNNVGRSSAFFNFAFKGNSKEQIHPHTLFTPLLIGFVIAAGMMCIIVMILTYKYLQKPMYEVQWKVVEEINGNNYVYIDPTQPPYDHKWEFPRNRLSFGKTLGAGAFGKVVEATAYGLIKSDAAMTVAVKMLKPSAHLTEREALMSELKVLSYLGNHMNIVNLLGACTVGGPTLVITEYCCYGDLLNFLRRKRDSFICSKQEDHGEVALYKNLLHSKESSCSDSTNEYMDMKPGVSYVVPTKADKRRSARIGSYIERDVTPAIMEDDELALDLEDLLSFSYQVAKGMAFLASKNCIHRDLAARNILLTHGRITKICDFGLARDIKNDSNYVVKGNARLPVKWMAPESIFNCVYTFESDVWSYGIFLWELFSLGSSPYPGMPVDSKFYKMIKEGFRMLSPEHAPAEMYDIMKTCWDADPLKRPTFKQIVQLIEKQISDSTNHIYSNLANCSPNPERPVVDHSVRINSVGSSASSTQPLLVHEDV

inhibition of KIT autophosphorylation ([1]; 0.1 μM): Near complete inhibition
inhibition of KIT autophosphorylation ([1]; 1.0 μM): complete inhibition
inhibition of KIT autophosphorylation ([1]; 10 μM): complete inhibition
autophosphorylation of c-kit ([1]; 0.001-0.01 μM): Limited autophosphorylation
expression of c-kit protein [1, 9]: no change
Compound: Cc1ccc(NC(=O)c2ccc(CN3CCN(C)CC3)cc2)cc1Nc1nccc(-c2cccnc2)n1 [COMPOUND I]
morphologic observations of inhibitor treated cells ([2]; BR cells (data not shown)): changes consistent with apoptosis
% (percent of maximal proliferation, cells only) ([2]; BR cells, 1 μM): 11%
Averages (XTT-based assay reading) ([2]; BR cells, 1 μM): 0.105
% (percent of maximal proliferation, cells only) ([2]; BR cells, 5 μM): 9%
Averages (XTT-based assay reading) ([2]; BR cells, 5 μM): 0.083
inhibition of proliferation ([2]; BR cells, 0.001-0.01 μM, 48-72 hours): Partial inhibition
decrease of proliferation compared to cells treated with media only ([2]; BR cells, 0.1-10 μM, 48-72 hours): 90-95%
% (percent of maximal proliferation, cells only) ([2]; BR cells, .001 μM): 84%
Averages (XTT-based assay reading) ([2]; BR cells, .001 μM): 0.781
% (percent of maximal proliferation, cells only) ([2]; BR cells, .01 μM): 52%
Averages (XTT-based assay reading) ([2]; BR cells, .01 μM): 0.479
% (percent of maximal proliferation, cells only) ([2]; BR cells, .1 μM): 11%
Averages (XTT-based assay reading) ([2]; BR cells, .1 μM): 0.105
morphologic observations of inhibitor treated cells [3]: changes consistent with apoptosis
Objective Tumors Responses [4]: observed
inhibition of KIT autophosphorylation ([5]; 0.1 μM): Near complete inhibition
inhibition of KIT autophosphorylation ([5]; 1.0 μM): complete inhibition
inhibition of KIT autophosphorylation ([5]; 10 μM): complete inhibition
autophosphorylation of c-kit ([5]; 0.001-0.01 μM): Limited autophosphorylation
expression of c-kit protein [5, 9]: no change
% (percent of maximal proliferation, cells only) ([6]; 1 μM): 3%
Averages (XTT-based assay reading) ([6]; 1 μM): 0.037
% (percent of maximal proliferation, cells only) ([6]; 5 μM): 3%
Averages (XTT-based assay reading) ([6]; 5 μM): 0.032
inhibition of proliferation ([6]; 0.001-0.01 μM, 48-72 hours): Partial inhibition
decrease of proliferation compared to cells treated with media only ([6]; 0.1-10 μM, 48-72 hours): 90-95%
% (percent of maximal proliferation, cells only) ([6]; .001 μM): 86%
Averages (XTT-based assay reading) ([6]; .001 μM): 1.065
% (percent of maximal proliferation, cells only) ([6]; .01 μM): 61%
Averages (XTT-based assay reading) ([6]; .01 μM): 0.754
% (percent of maximal proliferation, cells only) ([6]; .1 μM): 2%
Averages (XTT-based assay reading) ([6]; .1 μM): 0.028

Compound: Cc1ccc(NC(=O)c2ccc(CN3CCN(C)CC3)cc2)cc1Nc1nccc(-c2cccnc2)n1 [STI571B, N-{5-[4-(4-methyl-piperazino-methyl)-benzoylamido]-2-methyl-phenyl}-4-(3-pyridyl)-2-pyrimidine-amine monomesylate]
cell production by CD34+ cells under stimulation with SCF (CD34+ cord blood cells): markedly depresses
number of viable cells ([7]; SCF plus STI571B, after day 2): declines in a time-dependent fashion
number of viable cells ([7]; SCF plus STI571B, day 2): unchanged
total cell number ([7]; SCF plus STI571B, day 14): negligible level
progeny generation in culture with SCF ([7]; STI571B at 10^-6 M or higher, 10-week cultured mast cells, SCF): almost completely inhibits
percentage of sub-diploid nuclei ([8]; SCF plus STI571B, over culture period): increases with the culture period
DNA laddering on gel electrophoresis ([8]; cells exposed to SCF plus STI571B): DNA laddering
programmed death of cultured mast cells ([8]; grown under stimulation with SCF): induces a programmed death
